Legend:
[1] = system: P. multocida 46572; test: In vivo mouse lung infection challenge model (murine efficacy); design: species or system CD-1 female mice; conditions: 20 mg/kg subcutaneous, P. multocida challenge; harmonized against the comparative vehicle survival rate
Procedure: The challenge organism was P. multocida 46572. Target challenge concentration was 5×10^2 CFU/mouse. Isolated colonies from overnight growth (37° C. with 5% CO2) on trypticase soy agar (TSA II) blood plates were transferred to room temperature Brain Heart Infusion Broth (BHIB). The broth culture was incubated 3.5-4 hours to approximately mid-log phase of growth, as measured by forward light scatter at 600 nm (OD600, 0.200). The culture was centrifuged to collect the bacterial pellet. The pellet was re-suspended in BHIB and adjusted to provide an approximate concentration of 2.7 log^10 colony forming units (CFU) in 0.04 mL at the highest concentration. The challenge inoculum concentration was confirmed by serial dilutions of the inoculum for CFU enumeration. On Day −5, CD-1 female mice were received. Mice were given standard rodent diet and water ad libitum. On Day 0, bacterial inoculum (0.04 mL) was administered to each mouse (n=36) intranasally. Compounds of the invention were dosed at 20 mg/kg (0.1 mL) in a buffered (˜pH 5.4) propylene glycol, monothioglycerol and water solution by subcutaneous injection. Animals were observed from Days 1-10. The study was terminated on Day 10. In addition, some treatment groups were sampled at 6, 24, and 48 hours post bacterial challenge for RNA sequence analysis of lung tissue.
The murine efficacy model (P. multocida challenge) was optimized, and the treatment group size was powered to be able to observe statistically significant improvement of survival to expected ranges for immunomodulatory compounds. The experimental design was a randomized complete block design. Mice were individually identified and treatment groups comingled within a cage, with every treatment group equally represented across cages. Mortality was the primary variable. Mortality data was analyzed using a generalized mixed model with fixed effect of treatment and random effect of block. Survival time was also analyzed using the SAS PHREG (survival analysis) procedure to examine whether there were significant differences between treatment groups and the control group. Numerous compounds of the invention and M9 (positive control) were tested in this model at a dose of 20 mg/kg. Typical percent survival for no treatment control is in the range of 0-20% based on study to study variation in challenge inoculum and rate of infection. […] Mouse survival for M9 was about 90-100%, further supporting its antibacterial properties against the bacterial strain (Table 3). Survival values presented are harmonized against the comparative vehicle survival rate.

[2] = system: IL-1β; test: LPS-stimulated whole bovine blood assay, MSD cytokine detection; format: cell-based; conditions: overstimulation of IL-1β, LPS-stimulated bovine whole blood
[3] = system: TNF-α; test: as above; format: cell-based; conditions: Bos taurus, LPS-stimulated bovine whole blood; read-out: TNF-α (IC50 μM)
[4] = system: BRD pathogens, M. haemolytica and P. multocida; test: MIC screening panel of BRD pathogens (antibacterial / non-antibacterial); conditions: read-out: antibacterial / non-antibacterial (MIC for the BRD pathogens)

SMILES | Mouse Murine Percent Survival [1] | IL-1β OS of LPS [2] | IC50 [3] | MIC [4]
CCCNC[C@]1(O)[C@H](C)O[C@@H](O[C@H]2[C@H](C)[C@@H](O[C@@H]3O[C@H](C)C[C@H](N(C)C(=O)Nc4ccncc4)[C@H]3O)[C@](C)(O)C[C@@H](C)CN[C@H](C)[C@@H](O)[C@](C)(O)[C@@H](CC)OC(=O)[C@@H]2C)C[C@@]1(C)OC [Example H-73, 1-((2S,3R,4S,6R)-2-(((2R,3S,4R,5R,8R,10R,11R,12S,13S,14R)-2-ethyl-3,4,10-trihydroxy-13-(((2R,4R,5S,6S)-5-hydroxy-4-methoxy-4,6-dimethyl-5-((propylamino)methyl)tetrahydro-2H-pyran-2-yl)oxy)-3,5,8,10,12,14-hexamethyl-15-oxo-1-oxa-6-azacyclopentadecan-11-yl)oxy)-3-hydroxy-6-methyltetrahydro-2H-pyran-4-yl)-1-methyl-3-(pyridin-4-yl)urea] | 4% | >500 µM | > 500 µM | –
CCCNC[C@]1(O)[C@H](C)O[C@@H](O[C@H]2[C@H](C)[C@@H](O[C@@H]3O[C@H](C)C[C@H](N(C)C(=O)Nc4ccc(F)cc4)[C@H]3O)[C@](C)(O)C[C@@H](C)CN[C@H](C)[C@@H](O)[C@](C)(O)[C@@H](CC)OC(=O)[C@@H]2C)C[C@@]1(C)OC [Example H-83, 1-((2S,3R,4S,6R)-2-(((2R,3S,4R,5R,8R,10R,11R,12S,13S,14R)-2-ethyl-3,4,10-trihydroxy-13-(((2R,4R,5S,6S)-5-hydroxy-4-methoxy-4,6-dimethyl-5-((propylamino)methyl)tetrahydro-2H-pyran-2-yl)oxy)-3,5,8,10,12,14-hexamethyl-15-oxo-1-oxa-6-azacyclopentadecan-11-yl)oxy)-3-hydroxy-6-methyltetrahydro-2H-pyran-4-yl)-3-(4-fluorophenyl)-1-methylurea] | 11% | 80 µM | 350 µM | > 64 µg/mL
CCCNC[C@]1(O)[C@H](C)O[C@@H](O[C@H]2[C@H](C)[C@@H](O[C@@H]3O[C@H](C)C[C@H](N(C)C(=O)Nc4ccc(OC)cc4)[C@H]3O)[C@](C)(O)C[C@@H](C)CN[C@H](C)[C@@H](O)[C@](C)(O)[C@@H](CC)OC(=O)[C@@H]2C)C[C@@]1(C)OC [Example H-87, 1-((2S,3R,4S,6R)-2-(((2R,3S,4R,5R,8R,10R,11R,12S,13S,14R)-2-ethyl-3,4,10-trihydroxy-13-(((2R,4R,5S,6S)-5-hydroxy-4-methoxy-4,6-dimethyl-5-((propylamino)methyl)tetrahydro-2H-pyran-2-yl)oxy)-3,5,8,10,12,14-hexamethyl-15-oxo-1-oxa-6-azacyclopentadecan-11-yl)oxy)-3-hydroxy-6-methyltetrahydro-2H-pyran-4-yl)-3-(4-methoxyphenyl)-1-methylurea] | 14% | 500 µM | 100 µM | –
CC[C@H]1OC(=O)[C@H](C)[C@@H](O[C@H]2C[C@@](C)(OC)[C@](O)(CNCCN(C)C)[C@H](C)O2)[C@H](C)[C@@H](O[C@@H]2O[C@H](C)C[C@H](N(C)C(=O)Nc3ccccc3)[C@H]2O)[C@](C)(O)C[C@@H](C)CN[C@H](C)[C@@H](O)[C@]1(C)O [Example H-3, 1-((2S,3R,4S,6R)-2-(((2R,3S,4R,5R,8R,10R,11R,12S,13S,14R)-13-(((2R,4R,5S,6S)-5-(((2-(dimethylamino)ethyl)amino)methyl)-5-hydroxy-4-methoxy-4,6-dimethyltetrahydro-2H-pyran-2-yl)oxy)-2-ethyl-3,4,10-trihydroxy-3,5,8,10,12,14-hexamethyl-15-oxo-1-oxa-6-azacyclopentadecan-11-yl)oxy)-3-hydroxy-6-methyltetrahydro-2H-pyran-4-yl)-1-methyl-3-phenylurea] | 8% | >500 µM | 400 µM | –
CC[C@H]1OC(=O)[C@H](C)[C@@H](O[C@H]2C[C@@](C)(OC)[C@@H](O)[C@H](C)O2)[C@H](C)[C@@H](O[C@@H]2O[C@H](C)C[C@H](N(C)C(=O)N(C)c3ccccc3)[C@H]2O)[C@](C)(O)C[C@@H](C)CN(C)[C@H](C)[C@@H](O)[C@]1(C)O [Example B-5, 1-((2S,3R,4S,6R)-2-(((2R,3S,4R,5R,8R,10R,11R,12S,13S,14R)-2-ethyl-3,4,10-trihydroxy-13-(((2R,4R,5S,6S)-5-hydroxy-4-methoxy-4,6-dimethyltetrahydro-2H-pyran-2-yl)oxy)-3,5,6,8,10,12,14-heptamethyl-15-oxo-1-oxa-6-azacyclopentadecan-11-yl)oxy)-3-hydroxy-6-methyltetrahydro-2H-pyran-4-yl)-1,3-dimethyl-3-phenylurea] | <1% | – | – | –
CC[C@H]1OC(=O)[C@H](C)[C@@H](O[C@H]2C[C@@](C)(OC)[C@@H](O)[C@H](C)O2)[C@H](C)[C@@H](O[C@@H]2O[C@H](C)C[C@H](N(C)C(=O)Nc3ccccc3)[C@H]2O)[C@](C)(O)C[C@@H](C)CN(C)[C@H](C)[C@@H](O)[C@]1(C)O [Example B-4, 1-((2S,3R,4S,6R)-2-(((2R,3S,4R,5R,8R,10R,11R,12S,13S,14R)-2-ethyl-3,4,10-trihydroxy-13-(((2R,4R,5S,6S)-5-hydroxy-4-methoxy-4,6-dimethyltetrahydro-2H-pyran-2-yl)oxy)-3,5,6,8,10,12,14-heptamethyl-15-oxo-1-oxa-6-azacyclopentadecan-11-yl)oxy)-3-hydroxy-6-methyltetrahydro-2H-pyran-4-yl)-1-methyl-3-phenylurea] | 7% | 80 µM | 45 µM | –
CCCNC[C@]1(O)[C@H](C)O[C@@H](O[C@H]2[C@H](C)[C@@H](O[C@@H]3O[C@H](C)C[C@H](N(C)C(=O)N(c4ccccc4)C4CC4)[C@H]3O)[C@](C)(O)C[C@@H](C)CN[C@H](C)[C@@H](O)[C@](C)(O)[C@@H](CC)OC(=O)[C@@H]2C)C[C@@]1(C)OC [Example H-14, 1-cyclopropyl-3-((2S,3R,4S,6R)-2-(((2R,3S,4R,5R,8R,10R,11R,12S,13S,14R)-2-ethyl-3,4,10-trihydroxy-13-(((2R,4R,5S,6S)-5-hydroxy-4-methoxy-4,6-dimethyl-5-((propylamino)methyl)tetrahydro-2H-pyran-2-yl)oxy)-3,5,8,10,12,14-hexamethyl-15-oxo-1-oxa-6-azacyclopentadecan-11-yl)oxy)-3-hydroxy-6-methyltetrahydro-2H-pyran-4-yl)-3-methyl-1-phenylurea] | 46% | – | – | > 64 µg/mL
CC[C@H]1OC(=O)[C@H](C)[C@@H](O[C@H]2C[C@@](C)(OC)[C@](C)(O)[C@H](C)O2)[C@H](C)[C@@H](O[C@@H]2O[C@H](C)C[C@H](N(C)C(=O)N(C)c3ccc(C(F)(F)F)cc3)[C@H]2O)[C@](C)(O)C[C@@H](C)CN[C@H](C)[C@@H](O)[C@]1(C)O [Example B-13a, 1-((2S,3R,4S,6R)-2-(((2R,3S,4R,5R,8R,10R,11R,12S,13S,14R)-2-ethyl-3,4,10-trihydroxy-13-(((2R,4R,5R,6S)-5-hydroxy-4-methoxy-4,5,6-trimethyltetrahydro-2H-pyran-2-yl)oxy)-3,5,8,10,12,14-hexamethyl-15-oxo-1-oxa-6-azacyclopentadecan-11-yl)oxy)-3-hydroxy-6-methyltetrahydro-2H-pyran-4-yl)-1,3-dimethyl-3-(4-(trifluoromethyl)phenyl)urea] | 44% | 16 µM | 20 µM | –
CCCNC[C@]1(O)[C@H](C)O[C@@H](O[C@H]2[C@H](C)[C@@H](O[C@@H]3O[C@H](C)C[C@H](N(C)C(N)=O)[C@H]3O)[C@](C)(O)C[C@@H](C)CN[C@H](C)[C@@H](O)[C@](C)(O)[C@@H](CC)OC(=O)[C@@H]2C)C[C@@]1(C)OC [Example H-96, 1-((2S,3R,4S,6R)-2-(((2R,3S,4R,5R,8R,10R,11R,12S,13S,14R)-2-ethyl-3,4,10-trihydroxy-13-(((2R,4R,5S,6S)-5-hydroxy-4-methoxy-4,6-dimethyl-5-((propylamino)methyl)tetrahydro-2H-pyran-2-yl)oxy)-3,5,8,10,12,14-hexamethyl-15-oxo-1-oxa-6-azacyclopentadecan-11-yl)oxy)-3-hydroxy-6-methyltetrahydro-2H-pyran-4-yl)-1-methylurea] | 11% | – | – | > 64 µg/mL
